Tests used:
[1] = molecular target: T1, human c-Mpl-introduced Ba/F3 cell (Homo sapiens, UniProt P40238); assay: Test Example 2: human c-Mpl-introduced Ba/F3 cell proliferative activity; format: cell-based; details: concentration exhibiting 30% proliferation; 100% = positive control (Example 315 of Patent Document 1) at 1 μM
T1 construct: expressed in transfected cells
T1 sequence (P40238 26-635): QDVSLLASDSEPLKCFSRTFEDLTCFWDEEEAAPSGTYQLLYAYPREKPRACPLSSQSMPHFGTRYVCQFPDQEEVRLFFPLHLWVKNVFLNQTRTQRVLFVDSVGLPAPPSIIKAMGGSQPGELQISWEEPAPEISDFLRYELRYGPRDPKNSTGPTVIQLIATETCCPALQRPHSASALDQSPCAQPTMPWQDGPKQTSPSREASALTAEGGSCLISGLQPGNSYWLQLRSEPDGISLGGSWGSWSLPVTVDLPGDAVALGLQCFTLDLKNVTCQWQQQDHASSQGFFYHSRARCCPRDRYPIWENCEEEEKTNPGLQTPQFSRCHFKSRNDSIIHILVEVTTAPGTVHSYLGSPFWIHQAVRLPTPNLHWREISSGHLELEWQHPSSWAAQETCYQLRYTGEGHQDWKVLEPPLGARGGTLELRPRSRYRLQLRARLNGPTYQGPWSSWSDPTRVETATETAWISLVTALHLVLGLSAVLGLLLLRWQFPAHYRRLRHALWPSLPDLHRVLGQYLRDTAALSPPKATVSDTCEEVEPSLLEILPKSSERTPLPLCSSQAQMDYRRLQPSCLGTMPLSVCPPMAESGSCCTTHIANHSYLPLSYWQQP
Outline: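 Ba/F3 cells stably expressing human c-Mpl seeded at 1×10^4 cells/well with test substance (100 nM to 10 μM final) in RPMI-1640/10% FBS, overnight at 37 °C. Cell number by WST-type kit absorbance at 450 nm after ~5 h; proliferation % relative to untreated (0%) and reference agonist at 1 μM (100%).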

[2] = test system: pelvic nerve stimulation-induced elevation of intravesical pressure; assay: Test Example 4: effect on pelvic nerve stimulation-induced elevation of intravesical pressure in anesthetized rats; format: in vivo, rat; details: 3 mg/kg intravenous; maximum effect within one hour; anesthetized SD female rats; pre-treatment = 100%
Protocol: Test Example 4: Effect on Pelvic Nerve Stimulation-Induced Elevation of Intravesical Pressure in Anesthetized Rats
The effect of the Example compounds of the present invention in the pelvic nerve electrical stimulation-induced elevation of intravesical pressure using rats as an action of nerve stimulation-dependent bladder contraction in vivo was measured by the following method. That is, SD female rats (Japan SLC, Inc.) were used and its lower abdomen was dissected at the midline under pentobarbital anesthesia (50 mg/kg ip). After ligating and cutting the ureter on both sides, a cannula (PE-50) for measuring the intravesical pressure was inserted into the bladder from the external urethral opening and fixed by a clip. After injecting about 200 μL of saline through the cannula that had been inserted into the bladder, the other side was connected to a pressure transducer to measure the intravesical pressure. Under a stereoscopic microscope observation, the pelvic nerve in the vicinity of the bladder was peeled and an electrode for nerve stimulation (unique Medical) was placed. The abdominal cavity was filled with mineral oil (MP BIOMEDICALS). After placing in a post-operative stabilization period, the pelvic nerve was subjected to electrical stimulation (stimulation voltage: 10 V, stimulation frequency: 8 Hz, pulse width: 0.3 msec, and stimulation time: 10 seconds) to elicit the elevation of intravesical pressure, using an electrical stimulator (Nihon Kohden). By repeating the electrical stimulation at an interval of 2 minutes while adjusting the voltage, the voltage was adjusted to elicit about 50% to 70% elevation of intravesical pressure elicited at 10 V. Thereafter, by repeating the electrical stimulation at an interval of 10 minutes, the increase in the intravesical pressure by electrical stimulation was stabilized three times or more, and the test substance (an administration amount of 3 mg/kg) was then administered from the catheter detained in the vein at a volume of 1 mL/kg, thus measuring an effect of the elevation of the intravesical pressure of the test substance for 1 hour. The test substance was dissolved in water supplemented with 10% dimethylsulfoxide and 10% Cremophor.
The response was applied to a personal computer through a PowerLab (registered trademark) and analyzed by LabChart (registered trademark). The AUC of each elevation of the intravesical pressure was calculated, the intravesical pressure elevation rate (% of pre) after the treatment with the test substance was calculated by taking an average value of the values measured three times before the treatment with the test substance as 100%, and the maximum effect during a period within one hour after administration of the compound was considered as the effect of the test substance.
The elevation rates (% of pre) of the intravesical pressure when some Example compounds were administered at 3 mg/kg are shown in Table 4.

| Compound | human c-Mpl-introduced Ba/F3 cell proliferative activity EC30 [1] [µM] | Increase rate (% of pre) of intravesical pressure [2] |
| --- | --- | --- |
| C[C@@H]1CCCN1Cc1sc(NC(=O)c2cnc(N3CCN(CCC(=O)[O-])CC3)cn2)nc1-c1cc(C#N)cc(C(F)(F)F)c1.[Na+] [Example 34] | >10 | 134 % of pre |
| C[C@@H]1CCCN1Cc1sc(NC(=O)c2cnc(N3CCN(CCC(=O)O)CC3)cn2)nc1-c1ccc(F)c(C(F)(F)F)c1 [Example 60] | 9.7 | 130 % of pre |
| C[C@@H]1CCCN1Cc1sc(NC(=O)c2cnc(N3CCN(CCC(=O)O)CC3)cn2)nc1-c1cc(Cl)cc(C(F)(F)F)c1 [Example 11] | >10 | 132 % of pre |
| Cc1cc(OC(F)(F)F)cc(-c2nc(NC(=O)c3cnc(N4CCN(C(C)C(=O)O)CC4)cn3)sc2CN2CCC[C@H]2C)c1 (some centres unmarked) [Example 48] | >10 | 121 % of pre |
| C[C@@H]1CCCN1Cc1sc(NC(=O)c2cnc(N3CCN(CCC(=O)O)CC3)cn2)nc1-c1cc(Cl)cs1 [Example 50] | 2.3 | 207 % of pre |
| CC(C(=O)O)N1CCN(c2cnc(C(=O)Nc3nc(-c4cc(F)cc(C(F)(F)F)c4)c(CN4CCC[C@H]4C)s3)cn2)CC1 (some centres unmarked) [Example 64] | >10 | 135 % of pre |
| C[C@@H]1CCCN1Cc1sc(NC(=O)c2cnc(N3CCN(CCCC(=O)O)CC3)cn2)nc1-c1cc(F)cc(C(F)(F)F)c1 [Example 21] | >10 | 155 % of pre |
| COc1ccc(-c2nc(NC(=O)c3cnc(N4CCN(CCC(=O)O)[C@@H](C)C4)cn3)sc2CN2CCC[C@H]2C)cc1C(F)(F)F [Example 10] | >10 | 145 % of pre |
| CC[C@@H]1CCCN1Cc1sc(NC(=O)c2cnc(N3CCN(CCC(=O)O)CC3)cn2)nc1-c1ccc(OC)c(C(F)(F)F)c1 [Example 42] | >10 | 149 % of pre |

Continued, in another order:

| human c-Mpl-introduced Ba/F3 cell proliferative activity EC30 [1] [µM] | Compound | Increase rate (% of pre) of intravesical pressure [2] |
| --- | --- | --- |
| >10 | COc1c(F)cc(-c2nc(NC(=O)c3cnc(N4CCN(CCC(=O)O)CC4)cn3)sc2CN2CCC[C@H]2C)cc1C(F)(F)F [Example 72] | 155 % of pre |
| >10 | C[C@@H]1CCCN1Cc1sc(NC(=O)c2cnc(N3CCN(CCC(=O)O)C[C@H]3C)cn2)nc1-c1cc(F)cc(C(F)(F)F)c1 [Example 140] | 148 % of pre |
| >10 | CC[C@@H]1CCCN1Cc1sc(NC(=O)c2cnc(N3CCN(CCC(=O)O)C[C@H]3C)cn2)nc1-c1ccc(OC(C)C)c(C(F)(F)F)c1 [Example 135] | 168 % of pre |
| >10 | CC[C@@H]1CCCN1Cc1sc(NC(=O)c2cnc(N3CCN(CCC(=O)O)CC3)cn2)nc1-c1cccc(C(F)(F)F)c1 [Example 65] | 128 % of pre |
